From patent US12515963B2, “Nanoparticle composition and method of inhibiting ovarian cancer cell viability” (priority 2019, dated 2026)
Where two headings read alike, the source gives them in different places. Blank lines part the entries; values can stand above or below the compound they belong to.

Tests used:
[1] = test system: Saccharomyces cerevisiae RIA 259; experiment: Minimum inhibitory concentration (MIC); assay type: cell-based
Procedure: (§1) Minimum inhibitory concentration (MIC) was determined to assess antibacterial and antifungal activities of the samples in microorganisms. MIC is the lowest concentration of a drug, which prevents visible growth of bacterium. The tested panel of microorganisms represent a very broad spectrum of microorganisms, including Gram-positive and Gram-negative strains (Staphylococcus aureus vs. Escherichia coli), methicillin resistant strain INA 00761 (Staphylococcus aureus), vancomycin resistant strain VKPM B-4177 (Leuconostoc mesenteroides), fungi strain INA 00760 (Aspergillus niger), and yeast strain RIA259 (Saccharomyces cerevisiae).

[2] = test system: Aspergillus niger INA 00760; experiment: Minimum inhibitory concentration (MIC); assay type: cell-based
Procedure: as §1

[3] = test system: methicillin resistant Staphylococcus aureus INA 00761; experiment: Minimum inhibitory concentration (MIC); assay type: cell-based
Procedure: as §1

[4] = test system: Escherichia coli ATCC 25922; experiment: Minimum inhibitory concentration (MIC); assay type: cell-based
Procedure: as §1

[5] = test system: Staphylococcus aureus FDA 209P; experiment: Minimum inhibitory concentration (MIC); assay type: cell-based
Procedure: as §1

[6] = test system: vancomycin resistant Leuconostoc mesenteroides VKPM B-4177; experiment: Minimum inhibitory concentration (MIC); assay type: cell-based
Procedure: as §1
(§2) Minimum inhibitory concentration (MIC) was determined to assess the antibacterial potential of the compositions of Example 6 in microorganisms. MIC is the lowest concentration of a drug which prevents visible growth of bacterium. The tested panel of microorganisms represented a very broad spectrum of antibiotic resistant microorganisms. Sample 4-1 and Tetracycline (as control) were tested against multidrug-resistant Salmonella typhimurium DT 104. Sample 4-2 and Amoxicillin (as control) were tested against Bacillus subtilis. Sample 4-3 and Vancomycin (as control) were tested against vancomycin resistant Enterococcus type Van-A and also vancomycin resistant Leuconostoc mesenteroides VKPM B-4177. In all test conditions monometallic silver nanoparticle composition with Miramistin® alone (obtained using a process known in the art) were used as a control. This composition is referred to as “Ag-NPs-Myramistin in Table 8.

[7] = test system: CRL-2945 and U-87 cancer cells; experiment: Activity of the drugs alone on cancer cells; assay type: cell-based, human; settings: drug alone, data not shown
Procedure: (§3) The cytotoxic effects of Samples 6-1, 6-2, 7-1 and 7-2, glucosamine and Metformin on cancer cells were studied in CRL-2945 (human ovarian carcinoma) and U-87 (human glioblastoma). The doxorubicin resistant CRL-2945 and U-87 cells were generated by exposing the cells to the cytotoxic drug at incrementally increasing concentrations. In this way, resistant sublines were obtained (CRL-2945-R and U-87-R). The cell viability was analyzed in cells treated with different concentrations of Sample 6-1, Sample 6-2, Sample 7-1 and Sample 7-2. The samples were able to reduce viability in a dose-dependent manner. […] The doses were used to calculate IC50 values against the control cells (Table 12).
Higher toxicity of Sample 6-2 can be explained by the fact that Sample 6-2 bears very toxic doxorubicin, which is delivered into the cells with nanoparticles. […] Cancer cells CRL-2945-R and U-87-R were cultured in serum-free media to enrich the populations with cancer stem cells. Thus, enriched cells were tested with the samples.

U-87-R = experiment: Cancer cell viability (cytotoxic effect), doxorubicin resistant subline; assay type: cell-based; settings: Homo sapiens, Doxorubicin column
Procedure: as §3

CRL-2945-R = experiment: as above; assay type: cell-based; settings: Homo sapiens, Doxorubicin column
Procedure: as §3

[8] = test system: CRL-2945 (human ovarian carcinoma); experiment: Cancer cell viability (cytotoxic effect); assay type: cell-based; settings: CRL-2945, Doxorubicin column
Procedure: (§4) The cytotoxic effects of Samples 1-1 and 1-3 on cancer cells were studied in HCT-116 (human colon cancer cell lines), CRL-2945 (human ovarian carcinoma) and U-87 (human glioblastoma). Cell viability was analyzed in cells treated with different concentrations of Sample 1-1 and Sample 1-3. Nanoparticle samples were able to reduce viability in a dose-dependent manner. […] The doses were used to calculate IC50 value against the control cells (Table 3).
as §3

[9] = test system: U-87 (human glioblastoma); experiment: Cancer cell viability (cytotoxic effect); assay type: cell-based; settings: U-87, Doxorubicin column
Procedure: as §4, §3

Bacillus subtilis = experiment: Minimum inhibitory concentration (MIC); assay type: cell-based
Procedure: as §2

[10] = test system: multidrug-resistant Salmonella typhimurium DT 104; experiment: Minimum inhibitory concentration (MIC); assay type: cell-based; settings: Salmonella enterica
Procedure: as §2

- MIC ([1]; RIA259, read-out: MIC): 20 µg/mL
- MIC ([2]; INA00760, read-out: MIC): 20 µg/mL
- MIC ([3]; read-out: MIC): 10 µg/mL
- MIC ([4]; ATCC25922, read-out: MIC): 20 µg/mL
- MIC ([5]; FDA209P, read-out: MIC): 5 µg/mL
- MIC ([6]; Leuconostoc mesenteroides VKPM B-4177, read-out: MIC): 10 µg/mL
SMILES: CCCCCCCCCCCCCC(=O)NCCC[N+](C)(C)Cc1ccccc1.[Cl-] [Miramistin ®, benzyl-dimethyl-[3-(tetradecanoylamino)propyl]ammonium chloride]

SMILES: CN(C)C(=N)N=C(N)N [Metformin]
- activity alone on cancer cells [7]: did not show any significant activity

SMILES: COc1cccc2c1C(=O)c1c(O)c3c(c(O)c1C2=O)C[C@@](O)(C(=O)CO)C[C@@H]3O[C@H]1C[C@H](N)[C@H](O)[C@H](C)O1 [Doxorubicin]
- IC50 (U-87-R): 1200 nM
- IC50 (CRL-2945-R): 280 nM
- IC50 [8]: 130 nM
- IC50 [9]: 80 nM

SMILES: CN[C@H](CC(C)C)C(=O)N[C@H]1C(=O)N[C@@H](CC(N)=O)C(=O)N[C@H]2C(=O)N[C@H]3C(=O)N[C@H](C(=O)N[C@H](C(=O)O)c4cc(O)cc(O)c4-c4cc3ccc4O)[C@H](O)c3ccc(c(Cl)c3)Oc3cc2cc(c3O[C@@H]2O[C@H](CO)[C@@H](O)[C@H](O)[C@H]2O[C@H]2C[C@](C)(N)[C@H](O)[C@H](C)O2)Oc2ccc(cc2Cl)[C@H]1O [Vancomycin]
- MIC ([6]; Leuconostoc mesenteroides): > 128 µg/mL

SMILES: O=[N+]([O-])[O-].[Ag+] [Silver Nitrate, silver nitrate]
- MIC [1]: 10 µg/mL
- MIC [2]: 20 µg/mL
- MIC [3]: 5 µg/mL
- MIC [4]: 10 µg/mL
- MIC [5]: 20 µg/mL
- MIC ([6]; Leuconostoc mesenteroides VKPM B-4177): 5 µg/mL

SMILES: CC1(C)S[C@@H]2[C@H](NC(=O)[C@H](N)c3ccc(O)cc3)C(=O)N2[C@H]1C(=O)O [Amoxicillin]
- MIC (Bacillus subtilis): > 128 µg/mL

- MIC [10]: > 128 µg/mL
SMILES: CN(C)[C@@H]1C(O)=C(C(N)=O)C(=O)[C@@]2(O)C(O)=C3C(=O)c4c(O)cccc4[C@@](C)(O)[C@H]3C[C@@H]12 [Tetracycline]

SMILES: N[C@H]1C(O)O[C@H](CO)[C@@H](O)[C@@H]1O (stereo partly drawn) [Glucosamine]
- activity alone on cancer cells [7]: did not show any significant activity
